This is an account of results in a melting point compilation (Tetko et al.; mined from patent text by program, amines drawn as free bases though some values may be those of a salt).

Some results are limits rather than exact numbers.

`Cc1cc(F)cc(-c2ccc3c(c2)C2(C=N3)CCCCC2)c1` showed a melting point of 180 to 182 °C. For `C[C@H](NC(=O)C1(C)Oc2cc([N+](=O)[O-])ccc2NC1=O)C(=O)N[C@H](CCC(=O)O)C(=O)O` (stereo partly specified), the melting point was in the range of 132 to 135 °C. Then `CSCCC1N=C(c2ccccc2)c2cc(Cl)ccc2NC1=O` (stereo unspecified), with 184 °C; and `O=S1CCON=C1c1cccc(F)c1` (stereo unspecified), with 79 °C. The figure for `CCOC(=O)c1c(Cl)nn(C)c1S(=O)(=O)NC(=O)OC` is 107 to 110 °C.

In the case of `O=C(O)CCCc1ccc(-c2ccccc2Br)cc1`, the melting point was in the range of 148 to 149 °C. `CC(=O)c1ccc(OCCCOc2ccc(C(=O)C(=O)O)cc2)cc1O` registered a melting point of 133 to 135 °C.

For `CN(Cc1cc2c3c(c1)c(=O)c(C(=O)NCc1ccc(F)cc1)cn3CC(=O)N2C)C[C@@H](O)c1nccs1`, the melting point fell in the range of 156 to 158 °C.

`Cc1cccc(-c2cc(Cl)c3ccccc3n2)c1` had a melting point of 75 to 77 °C.

Regarding `CS(C)=NS(=O)(=O)c1ccc(N2CC(CO)OC2=O)cc1` (stereo unspecified), the melting point fell in the range of 162 to 164 °C. Then `COc1cc(Nc2nccc(NC3CCCCC3)n2)cc(OC)c1OC`, with 128 °C; and `O=C(CNCc1ccccc1)Nc1cccc2[nH]ccc12`, with 158 to 161 °C. For `CCCn1c(=O)c2c(NC)n[nH]c2n(Cc2cccc(Cl)c2)c1=O`, the melting point was in the range of 263 to 265 °C. Then `OCCc1ccc(Nc2ncc3c(n2)-c2ccccc2C(c2ccc(Cl)cc2)C3)cc1` (stereo unspecified), with 163 to 164 °C; and `COc1ccc(CN2CCC(c3cn(Cc4ccc(Cl)s4)c4cccnc34)CC2)cc1C(=O)O`, with 201 to 202 °C.

On to `COc1ccc(CC(=S)N2CCOCC2)cc1`, for which the melting point fell in the range of 145 to 147 °C. Then `CCCC[C@H](NC(=O)[C@@H](NC(=O)OCc1ccccc1)C(C)C)C(=O)CSCc1ccco1`, with 115 to 116 °C; and `N#Cc1ccc(N)c(F)c1F`, with 108 to 110 °C; and `CCOC(=O)C(CC(=O)c1cccc(Cl)c1)(NC(C)=O)C(=O)OCC`, with 84 to 86 °C. The figure for `CCCN1C(=O)C(=O)c2cc(SCCCc3ccc(C(=O)O)cc3)ccc21` is 140 to 142 °C; for `Cc1cc(Cl)cc2c(=O)oc(-c3cc(OCC(F)(F)F)nn3-c3ncccc3Cl)nc12` it is 178 to 180 °C; for `CC1=NC(NC(=O)CCc2ccc(Cl)cc2Cl)C(=O)N(C)c2ccccc21` (stereo unspecified) it is 194 to 195 °C. Then `ON=CCCc1ccccc1`, with 85 to 93 °C; and `O=C(c1ccccc1)N(N=Cc1ccccc1)c1ccccc1F`, with 97 to 99 °C; and `C=CC(=O)c1ccc(OCC(=O)O)c(Cl)c1Cl`, with 111 to 113 °C.

`CCCCNC1CC(C)(C)N(CCO)C(C)(C)C1` came in with a melting point of 106 to 111 °C. The figure for `CC(C)(C)OC(=O)N[C@@H](Cc1ccccc1)C(=O)C=[N+]=[N-]` is 87 to 90 °C; for `C=CCn1c(C)nc(N2CCc3ccccc3CC2)c(C#N)c1=O` it is 141 to 144 °C; for `COc1cccc2cc(SCCC(=O)O)n(C)c12` it is 120 to 122 °C.

`CC(C)(C)OC(=O)Nc1ccc(-c2ccoc2)cc1[N+](=O)[O-]`: the melting point was 105 to 110 °C.

In turn, `CCc1nc2cc(C(F)(F)F)c(Cl)cc2n1-c1ccc(C[C@H](C)NC(=O)NS(=O)(=O)c2ccc(C)cc2)cc1` displayed a melting point of 138 to 141 °C. For the compound `CCCCC1(CCCC)CS(=O)(=O)c2ccc(N(C)C)cc2[C@@H](c2ccc(OCc3ccc(C(=O)O)cc3)cc2)[C@H]1O`, the melting point was 156 to 159 °C.

`CCOC(=O)C1=C2C(=CC3=C(CCCC3)N2O)SC1C` (stereo unspecified) came in with a melting point of 135 to 136 °C.

`CCC(C)N1CC(C)=CC2=C1N1CN(OC)C=C1N=N2` (stereo unspecified) gave a melting point of 157 to 159 °C. The figure for `NCC1CCN(c2ncc3ncnc(Nc4ccc(F)c(Cl)c4)c3n2)CC1` is 165 °C. Then `CC(C)(C)NNC(=O)c1ccc(Cl)cc1`, with 116 to 122 °C.

The compound `O=C(N[C@@H](CSc1ccccc1[N+](=O)[O-])C(=O)O)OCc1ccccc1` yielded a melting point of 84 to 88 °C. Then `CC1(C)OCc2cc(C(=O)CBr)ccc2O1`, with 52 to 54 °C; and `O=C(NCCCSc1cccnc1)c1cccs1`, with 66 to 67 °C; and `O=C(O)c1ccc(COc2ccccc2)nc1C(=O)O`, with 270 °C.

In turn, `[O-][N+](O)=CCN=Nc1ccccc1` yielded a melting point of 95 to 97 °C. The figure for `CCOC(=O)c1cnc2occ(Br)c2c1` is 107 to 108 °C; for `CC(C)(C)OC(=O)N1CC(CCl)c2c1cc(NC(=O)OCC1c3ccccc3-c3ccccc31)c1ccccc21` (stereo unspecified) it is 103 to 106 °C. Then `Cc1nc(-c2nc(C)c(-c3ccnc(Nc4cc(Cl)c(N5CCOCC5)c(Cl)c4)n3)s2)cs1`, with above 300 °C; and `Clc1ccc(C(C2=NCCN2)c2nccs2)cc1` (stereo unspecified), with 145 to 147 °C. With `N#CCC(C#N)NNc1ccccc1` (stereo unspecified), the melting point was 97 to 98 °C. The figure for `N#CCC1COc2ccccc2O1` (stereo unspecified) is 66 to 67 °C; for `Cc1[nH]c2ccnn2c(=O)c1CCO` it is 225 to 226 °C; for `Cn1c2c(cnc3c(N)cccc32)c(=O)n1C(=O)OC(C)(C)C` it is above 250 °C. Then `CCCCCCCCCCCCc1ccc(N)c([N+](=O)[O-])c1`, with 69 to 71 °C; and `CCCCCCCCCCCC#Cc1ccoc1C=O`, with 56 to 57 °C. Then `CNC(=O)c1cc2c(OC[C@@H](O)CN3CCC(c4ccc5ccccc5c4)CC3)cccc2n1C`, with 180 to 183 °C; and `CC(C)(C)OC(=O)N1CCC[C@H]1C(=O)OCCCNc1cccc2c1C(=O)c1ccccc1C2=O`, with 121 °C; and `CC(=O)NS(=O)(=O)c1cccc(-c2cccc(-c3cc(-c4ccc(C(F)(F)F)cc4)cc(C)n3)n2)c1`, with 244 °C. `Cc1c(C(=O)O)nc2c(cc(C)c3nc(C(=O)O)c(C)c(O)c32)c1O` yielded a melting point of 205 to 206 °C. The figure for `CN(C(N)=O)C1CCCc2ccccc21` (stereo unspecified) is 160 to 163 °C. Take `COc1ccc(Oc2cc3nc(-c4ccccc4)oc3cc2[N+](=O)[O-])cc1`: the melting point lay in the range of 142 to 146 °C. The figure for `Cc1cc2c3c(c1)c(=O)c(C(=O)O)cn3C1CCCCC21` (stereo unspecified) is 188 to 190 °C; for `CCCCCN1CCN(O)C1=O` it is 60 to 61 °C. Then `CCc1nc2c(N)nc3ccc(OCc4ccccc4)cc3c2n1CCCCNC(=O)N1CCOCC1`, with 190 to 191 °C; and `O=C(O)c1cccc2cc(Cc3cc(=O)[nH]c(=S)[nH]3)ccc12`, with 334 to 337 °C. In turn, `Cc1cc2c(cc1C(F)(F)F)NCC2` came in with a melting point of 43 to 44 °C.

With `CCCC(=O)Nc1ccccc1Oc1cc(-c2ccc(C(F)(F)F)cc2)ncn1`, the melting point came out at 112 °C. The figure for `Cc1nccc2[nH]c(=O)c(C(=O)O)cc12` is 255 to 257 °C. Then `COc1ccc(CC(C)NC(O)Cc2cc3ccccc3o2)cc1` (stereo unspecified), with 75 to 85 °C; and `CCC(C(=O)O)c1ccccc1Br` (stereo unspecified), with 37 to 39 °C; and `CCc1cccc2c(/C=C/C(=O)N3CCCCC3)cc(OC)c(O)c12`, with 85 to 86 °C.

In turn, `CCOC(=O)Nc1ncc(-c2nc3ccccc3c(=O)n2-c2ccc(OC)cc2)s1` gave a melting point of 222 to 224 °C. Regarding `Oc1ccc2c(c1)[C@H](O)[C@H](Cc1cccnc1)CO2` (relative stereo), the melting point lay in the range of 144 to 147 °C. Then `CCNC(=O)c1cc([N+](=O)[O-])ccc1Oc1cncc(Cl)c1`, with 165 to 167 °C; and `CC1(C)C(=O)N(c2ccc(C#N)c(C(F)(F)F)c2)C(=O)N1CC=CCN1C(=O)N(c2ccc(C#N)c(C(F)(F)F)c2)C(=O)C1(C)C`, with 188 to 190 °C; and `CN1CCCC(O)(c2cccc3c2ccn3C)C1` (stereo unspecified), with 90 °C. As for `CC(Cn1ncc2ccc(OCc3ccccc3)cc21)O[Si](C)(C)C(C)(C)C` (stereo unspecified), the melting point lay within 56 to 58 °C. The figure for `COc1cc2c(CCN)c[nH]c2cc1Cl` is 150 °C. In turn, `Cc1cc(=O)[nH]c(SCc2ccccn2)n1` registered a melting point of 154 to 156 °C.

Turning to `O=C(/C=C/c1ccc(O)cc1)CC(=O)/C=C/c1ccccc1CO`, the melting point lay in the range of 173 to 180 °C. The figure for `O=C(OCc1ccccc1)N1C[C@@H]2CN(c3ccc(N4C[C@H](CO)OC4=O)cc3F)C[C@@H]2C1` is 168 to 171 °C; for `Cc1ccc(C(=O)Nc2ccc(CN3CCN(C)CC3)c(C(F)(F)F)c2)cc1C#Cc1ccc(NC(C)C)nn1` it is 67 to 68 °C. `Cc1c(-c2cccc(OCc3ccccc3)c2)n(Cc2ccc(OCCN3CCCCC3)cc2)c2ccc(OCc3ccccc3)cc12`: the melting point was 125 to 126 °C. The figure for `c1cc(OC[C@H]2CO2)c2cccnc2c1` is 79 to 81 °C; for `O=C(NCCCO)c1cccc(-c2ccc3c(n2)N(Cc2ccc(Cl)cc2Cl)CC3)c1` it is 145 to 146 °C; for `Cc1cc(C)cc(-c2cnn3c(-c4cccc(NC(=O)CC(C)C)c4)ccnc23)c1` it is 178 to 180 °C. The figure for `Oc1ccnn1-c1c(Cl)cc(C(F)(F)F)cc1Cl` is 223 to 225 °C; for `C#Cc1cccc(Nc2ncnc3ccc(NC(=O)c4ccc(C(=O)Nc5ccccc5N)nc4)cc23)c1` it is 213 to 216 °C. The figure for `C[C@@H](CO)[C@](O)(Cn1cncn1)c1ccc(F)cc1F` is 93 to 95 °C; for `CC(=O)[NH+]([O-])C[C@@H]1CN(c2ccc(N3CCN(S(=O)(=O)c4ccccc4C#N)CC3)c(F)c2)C(=O)O1` (stereo partly specified) it is 190 to 192 °C; for `CCCC(=O)c1cnc2c(C)cccc2c1Nc1ccccc1F` it is 109 to 111 °C.

Compound `CC(C)(C)OC(=O)N1CCC=C(c2ccnc(C(=O)N(O)Cc3ccccc3)c2)C1` displayed a melting point of 128 to 134 °C.

As for `Cc1c(C(O)C(F)(F)F)oc2c(Br)cccc12` (stereo unspecified), the melting point was 93 °C. The figure for `O=C1C(c2cc3c(cc2O)OCC3)c2ccc(F)cc2N1C(c1ccccc1)c1ccccc1` (stereo unspecified) is 121 to 123 °C; for `COC(=O)c1nc2cc(C)ccc2c(O)c1C(=O)OC` it is 209 to 211 °C.

In general, melting point refers to the temperature, or range, at which the solid turns liquid.
